Results as given in PubChem BioAssay (NCI).
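Interpolation was linear, between the two tested concentrations surrounding the appropriate level; five concentrations were tested over 48 hours in 96-well plates. Definition used: TGI = concentration required for complete inhibition of growth.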

Assays:
Assay in all cases: NCI tumour cell line growth inhibition, 48 h
786-0 renal = tested on: 786-0 renal
ACHN renal = tested on: ACHN renal
BT-549 breast = tested on: BT-549 breast
HL-60(TB) leukemia = tested on: HL-60(TB) leukemia
HT29 colon = tested on: HT29 colon
KM12 colon = tested on: KM12 colon
LOX IMVI melanoma = tested on: LOX IMVI melanoma
M14 melanoma = tested on: M14 melanoma
MCF7 breast = tested on: MCF7 breast
MDA-N = tested on: MDA-N
NCI-H23 lung = tested on: NCI-H23 lung
NCI/ADR-RES ovarian = tested on: NCI/ADR-RES ovarian
OVCAR-8 ovarian = tested on: OVCAR-8 ovarian
RPMI-8226 leukemia = tested on: RPMI-8226 leukemia
SK-MEL-2 melanoma = tested on: SK-MEL-2 melanoma
SK-MEL-5 melanoma = tested on: SK-MEL-5 melanoma
SK-OV-3 ovarian = tested on: SK-OV-3 ovarian
SN12C renal = tested on: SN12C renal
TK-10 renal = tested on: TK-10 renal

| Structure (SMILES) | TGI (786-0 renal) [µM] | TGI (ACHN renal) [µM] | TGI (BT-549 breast) [µM] | TGI (HL-60(TB) leukemia) [µM] | TGI (HT29 colon) [µM] | TGI (KM12 colon) [µM] | TGI (LOX IMVI melanoma) [µM] | TGI (M14 melanoma) [µM] | TGI (MCF7 breast) [µM] | TGI (MDA-N) [µM] | TGI (NCI-H23 lung) [µM] | TGI (NCI/ADR-RES ovarian) [µM] | TGI (OVCAR-8 ovarian) [µM] | TGI (RPMI-8226 leukemia) [µM] | TGI (SK-MEL-2 melanoma) [µM] | TGI (SK-MEL-5 melanoma) [µM] | TGI (SK-OV-3 ovarian) [µM] | TGI (SN12C renal) [µM] | TGI (TK-10 renal) [µM] |
| --- | --- | --- | --- | --- | --- | --- | --- | --- | --- | --- | --- | --- | --- | --- | --- | --- | --- | --- | --- |
| CN(C)CCCn1c(Cc2ccc(Cl)cc2)nc2cc(C(F)(F)F)ccc21 | 27 | 26 | 32.4 | 61.9 | 29.8 | 28.1 | 29.7 | 25.6 | 27.6 | 25.4 | 31.4 | 33.6 | 33.4 | > 100 | 31 | 32.5 | 28.2 | 29.4 | 29.6 |
| CCN(CC)c1ccc2cc(C(N)=S)c(=N)oc2c1 | > 100 | > 100 | > 100 | > 100 | > 100 | > 100 | > 100 | > 100 | > 100 | > 100 |  | > 100 | > 100 | > 100 | > 100 | > 100 | > 100 | > 100 | > 100 |
| CC[C@@H]1C(=O)OC[C@@H]1Cc1cncn1C | > 100 | > 100 | > 100 | > 100 | > 100 | > 100 | > 100 | > 100 | > 100 | > 100 | > 100 | > 100 | > 100 | > 100 | > 100 | > 100 | > 100 | > 100 | > 100 |
| O=C1/C(=C/c2ccc(OC(=O)c3ccccc3)cc2)CCC/C1=C\c1ccc(OC(=O)c2ccccc2)cc1 | > 100 | > 100 | > 100 | > 100 | > 100 | > 100 | > 100 | > 100 | > 100 | > 100 | > 100 | > 100 | > 100 | > 100 | > 100 | > 100 |  | > 100 | > 100 |
| O=C1c2ccccc2CN1c1ccc(OCCN2CCCCC2)cc1 | > 10 | > 10 | > 10 | > 10 | > 10 | > 10 | > 10 | > 10 | > 10 | > 10 | > 10 | > 10 | > 10 | > 10 | > 10 | > 10 | > 10 | > 10 | > 10 |
| C/C(=N\n1c(Cc2ccccc2)n[nH]c1=O)c1ccccc1 | > 100 | > 100 | > 100 | > 100 | > 100 | > 100 | > 100 | > 100 | > 100 | > 100 | > 100 | > 100 | > 100 | > 100 | > 100 | > 100 |  | > 100 | > 100 |
| Cc1cc(C)c(S(=O)(=O)N2CCCN(S(=O)(=O)c3c(C)cc(C)cc3C)OCCCO2)c(C)c1 | > 100 | > 100 | > 100 | > 100 | > 100 | > 100 | > 100 | > 100 | > 100 | > 100 | > 100 | > 100 | > 100 |  | > 100 | > 100 | > 100 | > 100 | > 100 |
| COC(=O)c1ccccc1C1CN=NC12Cc1ccccc1C2=O (stereo not drawn) | > 100 | > 100 | > 100 | > 100 | > 100 | > 100 | > 100 | > 100 | > 100 | > 100 | > 100 | > 100 | > 100 | > 100 | > 100 | > 100 | > 100 | > 100 | > 100 |
| COc1cc(C2SCC(=O)N2c2ccc(-n3c(-c4ccccc4)nc4ccccc4c3=O)cc2)cc(OC)c1OC (stereo not drawn) | > 100 | > 100 | > 100 | > 100 | > 100 | > 100 | > 100 |  | > 100 | > 100 | > 100 | > 100 | > 100 | > 100 | > 100 | > 100 | > 100 | > 100 | > 100 |
| Cc1cccc2c1C(=O)[C@](C)([C@]1(C)Nc3cccc(C)c3C1=O)N2 | > 100 | > 100 | 62.5 | 0.54 | > 100 | > 100 | > 100 | > 100 | > 100 | 63 | 77.4 | > 100 | 72.8 | 53.7 | 69.2 | > 100 | 76.6 | > 100 |  |
| Clc1nssc1=Nc1nonc1-c1ccccc1 | > 100 | 36.1 | 89.8 | 34.9 | 52.2 | 96 | > 100 | 37.2 | > 100 | 41.2 | 76.6 | 98.3 | > 100 | 63.3 | > 100 | 37 | > 100 | 42.4 |  |
| Cc1c(CCN2CCOCC2)c(N2CCOCC2)n2c(nc3ccccc32)c1C#N | > 10 | > 10 | > 10 | > 10 | > 10 | > 10 | > 10 | > 10 | > 10 | > 10 | > 10 | > 10 | > 10 | > 10 |  | > 10 | > 10 | > 10 | > 10 |
| CSC1=Nc2ccccc2-c2nc3ccccc3cc2C1 | > 100 | > 100 | > 100 | > 100 | > 100 | > 100 | > 100 | > 100 | > 100 | > 100 | > 100 | > 100 | > 100 |  | > 100 | > 100 | > 100 | > 100 | > 100 |
